Details: for Appearance of mixture with water (solubility): 400 g mixed with water and stirred, 400 g/l mixture
Excerpt: 400 g of Dicamba with the 93.8 wt % purity as defined above in the experimental part were mixed with water and stirred to obtain a 400 g/l mixture of dicamba.
400 g of dicamba with a purity of 98 wt % were mixed with water.

Row | Compound | Appearance of mixture with water (solubility) | Stability of the aqueous mixture on storage (400 g/l mixture in water, room temperature, two weeks)
1 | COc1c(Cl)ccc(Cl)c1C(=O)O [dicamba with a purity of 98 wt %, 3,6-dichloro-2-methoxybenzoic acid] | clear solution | –
2 | COc1c(Cl)ccc(Cl)c1C(=O)[O-].[K+] [Dicamba with the 93.8 wt % purity, potassium dicamba] | turbid mixture | serum formation and sedimentation of the undissolved components

— US12685309B2, “Agrochemical formulations” (BASF CORPORATION, priority 2020, dated 2026)
